Test system: PGY-sRNA-26
Experiment: In vivo delivery study of lipid-nucleic acid mixture (oral gavage, RT-qPCR of PGY-sRNA-26 in tissues)
Design: species or system mouse
Conditions: C57BL/6 mice, gavage, 100 μg lipid: 10 nmol PGY-sRNA-26, 12 hours; for delivery efficacy over each tissue and blood tested (broad-spectrum delivery): all tissues and blood tested; for oral delivery of single-stranded sRNA nucleic acids into mouse intestinal tissue: intestine
Summary of the method: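 C57BL/6 male mice (~6 weeks, 20-24 g), fasted 12 h, were gavaged with 10 nmol 3′-methylated PGY-sRNA-26 mixed with 100 μg lipid (heated 90° C. 15 min), versus saline or free sRNA (n=4 each). After 12 h, blood and tissues were Trizol-extracted; sRNA quantified by stem-loop RT-qPCR relative to U6.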

Structure (SMILES) | delivery efficacy over each tissue and blood tested (broad-spectrum delivery) | oral delivery of single-stranded sRNA nucleic acids into mouse blood | oral delivery of single-stranded sRNA nucleic acids into mouse brain tissue | oral delivery of single-stranded sRNA nucleic acids into mouse femur | oral delivery of single-stranded sRNA nucleic acids into mouse heart tissue | oral delivery of single-stranded sRNA nucleic acids into mouse intestinal tissue | oral delivery of single-stranded sRNA nucleic acids into mouse kidney tissue | oral delivery of single-stranded sRNA nucleic acids into mouse liver tissue | oral delivery of single-stranded sRNA nucleic acids into mouse lung tissue | oral delivery of single-stranded sRNA nucleic acids into mouse spleen tissue | oral delivery of single-stranded sRNA nucleic acids into mouse stomach tissue
CC(C)CCC[C@@H](C)[C@H]1CC[C@H]2[C@@H]3C[C@@H](O)[C@@]4(O)C[C@@H](O)CC[C@]4(C)[C@H]3CC[C@]12C [Lipid 551, Cholestan-3,5,6-triol (3S,5R,6R,8S,9S,10R,13R,14S,17R)-10,13-dimethyl-17-[(2R)-6-methylheptan-2-yl]-1,2,3,4,6,7,8,9,11,12,14,15,16,17-tetradecahydrocyclopenta[a]phenanthrene-3,5,6-triol] | exhibited the best delivery efficacy | can effectively orally deliver | can effectively orally deliver | can effectively orally deliver | can effectively orally deliver | can effectively orally deliver | can effectively orally deliver | can effectively orally deliver | can effectively orally deliver | can effectively orally deliver | can effectively orally deliver
C[C@H](CCC(=O)NCC(=O)O)[C@H]1CC[C@H]2[C@@H]3[C@H](O)C[C@@H]4C[C@H](O)CC[C@]4(C)[C@H]3C[C@H](O)[C@]12C [Lipid 553] | exhibited the best delivery efficacy | can effectively orally deliver | can effectively orally deliver | can effectively orally deliver | can effectively orally deliver | can effectively orally deliver | can effectively orally deliver | can effectively orally deliver | can effectively orally deliver | can effectively orally deliver | can effectively orally deliver
CC(=O)[C@H]1CC[C@H]2[C@@H]3CC=C4C[C@@H](O)CC[C@]4(C)[C@H]3CC[C@]12C [Lipid 590] | exhibited the best delivery efficacy | can effectively orally deliver | can effectively orally deliver | can effectively orally deliver | can effectively orally deliver | can effectively orally deliver | can effectively orally deliver | can effectively orally deliver | can effectively orally deliver | can effectively orally deliver | can effectively orally deliver
C[C@H](CCC(=O)O)[C@H]1CC[C@H]2[C@@H]3[C@@H](O)C[C@@H]4C[C@H](O)CC[C@]4(C)[C@H]3CC[C@]12C [Lipid 592] | exhibited the best delivery efficacy | can effectively orally deliver | can effectively orally deliver | can effectively orally deliver | can effectively orally deliver | can effectively orally deliver | can effectively orally deliver | can effectively orally deliver | can effectively orally deliver | can effectively orally deliver | can effectively orally deliver
C[C@]12CCC(=O)C[C@@H]1CC[C@@H]1[C@@H]2CC[C@@]2(C)[C@H]1CC[C@]2(C)O [Lipid 539] | exhibited the best delivery efficacy | can effectively orally deliver | can effectively orally deliver | can effectively orally deliver | can effectively orally deliver | can effectively orally deliver | can effectively orally deliver | can effectively orally deliver | can effectively orally deliver | can effectively orally deliver | can effectively orally deliver
C[C@H]1C[C@@H]2[C@H]([C@@H](O)C[C@@]3(C)[C@H]2CC[C@]3(O)C(=O)CO)[C@@]2(C)C=CC(=O)C=C12 [Lipid 547] | exhibited the best delivery efficacy | can effectively orally deliver | – | can effectively orally deliver | can effectively orally deliver | can effectively orally deliver | can effectively orally deliver | can effectively orally deliver | can effectively orally deliver | can effectively orally deliver | can effectively orally deliver
C[C@H](CCC(=O)O)[C@H]1CC[C@H]2[C@@H]3CC[C@@H]4C[C@H](O)CC[C@]4(C)[C@H]3CC[C@]12C [Lipid 577] | – | can effectively orally deliver | can effectively orally deliver | can effectively orally deliver | can effectively orally deliver | can effectively orally deliver | can effectively orally deliver | can effectively orally deliver | can effectively orally deliver | – | can effectively orally deliver
C#C[C@]1(O)CC[C@H]2[C@@H]3CCC4=CC(=O)CC[C@@H]4[C@H]3CC[C@@]21CC [Lipid 560] | exhibited the best delivery efficacy | can effectively orally deliver | can effectively orally deliver | can effectively orally deliver | can effectively orally deliver | can effectively orally deliver | can effectively orally deliver | can effectively orally deliver | can effectively orally deliver | can effectively orally deliver | can effectively orally deliver

Source: patent US20240293551A1, “USE OF ST-TYPE LIPID COMPOUNDS IN PREPARATION OF NUCLEIC ACID DELIVERY REAGENT AND RELATED PRODUCT” (INSTITUTE OF BASIC MEDICAL SCIENCES CHINESE ACADEMY OF …, priority 2021, published 2024)
